Test results taken from US5449592A, “Silver halide color photographic light sensitive material for color proof and method for preparing color proof using the same” (Konica Corporation, priority 1988, dated 1995).

Columns and labels:
[1] = pKa of couplers, spectrophotometric method; type: physicochemical; conditions: spectrophotometric method (no asterisk); 2-butoxyethanol and water (30:70)
Source text: (§1) In this invention, a pKa value means a common logarithmic value of the reciprocal of a proton-dissociation equilibrium constant K at the active site of a coupler.
(§2) As described in, for example, J.C.S., Perkin I, 809(1973) and 1768(1973), J. Phot. Sci., 22,49(1974), E. Pelizzrtti(3M, Italia), C. Saini(Toino Vniv.) and J. Phot. Sci., 13,248(1985) B. P. Brand (ICI), a pKa value can be measured in a spectrophotometric method or a neutralization-titration mehtod, using a suitable solvent such as a mixture of water and organic solvent.
In the spectrophotometric method, a pka value of coupler is regarded as a pH value obtained in correspondence with the inflection point of a rerational curve obtained between the pH and absorbance of a coupler solution, utilizing the fact that there is a difference in absorbance between the coupler itself and the anion thereof.
To be more concrete, the above-mentioned coupler solution is prepared by the use of a mixture of 2-butoxyethanol and water (30:70) as a solvent. The concentration of the coupler solution is adjusted to the order of 1×10^-5 to 1×10^-2 M so that pKa values can readily be measured. The coupler solution is added with anhydrous potassium carbonate in an amount of 3 g per liter, and is further adjusted to be various pH values by adding hydrochloric acid and potassium hydroxide correspondingly. The spectral absorbance of each solution is then measured so as to obtain a relational curve made between the pH value and the spectral absorbance of each solution.
Certain of couplers have plural dissociable protons. In those cases, plural pKa values may be obtained. Among those values, however, each pKa value of this invention means a value measured in relation to making anionic the nucleus of a coupler capable of forming a dye upon coupling reaction with the oxidized product of a color developing agent.
(§3) Either of the above-described two measurement methods may be so selected out as to meet the characteristics of a coupler subjected to a measurement. When measuring one and the same coupler in the two methods, respectively, there are some differences between the resulted pKa values. Howerer, the difference in pKa value between a magenta coupler and yellow coupler used in the invention, i.e., a value of pKa 1-pKa 2, can be applied to the invention, provided that both of the pKa1 and pKa2 values are measured in one and the same method of the two.
In Table 1, pKa values with asterisks are values measured by the neutralization-titration method. The other valves without asterisk are measured by the spectrophotometric method.
Asterisks in Table 2 have the same mean as in Table 1.

[2] = pKa of couplers, neutralization-titration method; type: physicochemical; conditions: neutralization-titration method (asterisk)
Source text: as §1
as §2, with “solvent. […]” for “solvent.”
Certain of couplers have plural dissociable protons. […] Among those values, however, each pKa value of this invention means a value measured in relation to making anionic the nucleus of a coupler capable of forming a dye upon coupling reaction with the oxidized product of a color developing agent.
as §3, with “When measuring one and the same coupler in the two methods, respectively, there are some differences between the resulted pKa values.” left out
In Table 1, pKa values with asterisks are values measured by the neutralization-titration method. […]

| Compound | pKa [1] | pKa [2] |
| --- | --- | --- |
| CCCCCCCCCCCCOc1ccc(S(=O)(=O)Nc2ccc(CCCc3n[nH]c4c(Cl)c(C)nn34)cc2)cc1 [M-1] | 10.24 | – |
| CCCCCCCCCCCCCCCCCCS(=O)(=O)CC(C)c1n[nH]c2c(Cl)c(C)nn12 (stereo not drawn) [M-3] | 8.99 | – |
| CCCCCCCCC(CCCCCC)CS(=O)(=O)CCc1n[nH]c2c(Cl)c(C)nn12 (stereo not drawn) [M-4] | 9.11 | – |
| CCCCCCCCC(CCCCCC)CS(=O)(=O)CCc1nn2c(C)n[nH]c2c1Cl (stereo not drawn) [M-9] | 9.18 | – |
| CCCCCCCCCCC(Oc1ccc(C(C)(C)c2ccc(O)cc2)cc1)C(=O)Nc1ccc(S(=O)(=O)CCc2n[nH]c3c(Cl)c(C)nn23)cc1 (stereo not drawn) [M-12] | 9.71 | – |
| CCCCC(Oc1ccc(C(C)(C)CC)cc1C(C)(C)CC)C(=O)Nc1ccc(CCc2n[nH]c3c(Cl)c(CC)nn23)cc1 (stereo not drawn) [M-16] | 10.30 | – |
| CCCCOc1ccc(C(C)(C)CC(C)(C)C)cc1S(=O)(=O)CCCc1n[nH]c2c(Cl)c(C(C)C)nn12 [M-21] | 10.07 | – |
| CCCCCCCCCCCCCCCCS(=O)(=O)CCC(C)c1n[nH]c2c(Cl)c(C(C)C)nn12 (stereo not drawn) [M-22] | 9.70 | – |
| CCCCCCCCOc1ccc(C)cc1S(=O)(=O)CCS(=O)(=O)CCC(C)c1n[nH]c2c(Cl)c(C(C)C)nn12 (stereo not drawn) [M-26] | 9.68 | – |
| CCCCOc1ccc(C(C)(C)CC(C)(C)C)cc1S(=O)(=O)CCCc1n[nH]c2c(Cl)c(C(C)(C)C)nn12 [M-33] | 10.39 | – |
| CCC(C)(C)c1ccc(OCC(=O)Nc2ccc(S(=O)(=O)CC(C)(C)c3n[nH]c4c(Cl)c(C(C)(C)C)nn34)cc2)c(C(C)(C)CC)c1 [M-40] | 9.90 | – |
| CCCCOc1ccc(NS(=O)(=O)c2cc(C(C)(C)CC(C)(C)C)ccc2OCCCC)cc1S(=O)(=O)Nc1ccc(CCCc2n[nH]c3c(Cl)c(C(C)(C)C)nn23)cc1 [M-44] | 10.80 | – |
| CCCCOc1ccc(C(C)(C)CC(C)(C)C)cc1Sc1c(SCC)nn2c(CCNC(=O)C(CCCC)Oc3ccc(C(C)(C)CC)cc3C(C)(C)CC)n[nH]c12 (stereo not drawn) [M-49] | 9.43 | – |
| CCCCCCCCCCCCCC(=O)Nc1ccc(Cl)c(NC2=NN(c3c(Cl)cc(Cl)cc3Cl)C(=O)C2)c1 [MC-1] | – | 10.07 |
| CCC(C)(C)c1ccc(OCCCC(=O)Nc2ccc(Cl)c(NC(=O)C(Oc3ccc(S(=O)(=O)c4ccc(OCc5ccccc5)cc4)cc3)C(=O)C(C)(C)C)c2)c(C(C)(C)CC)c1 (stereo not drawn) [Y-8] | 8.60 | – |
